This passage reports IC50, blood plasma ratio and Blood/plasma ratio results from US20070135399A1, “Heteroaromatic sulphonamide prodrugs” (priority 2005, published 2007).

Like-named read-outs stand apart in the source and are kept apart here.

Data set [1] concerns the target human carboanhydrase II (Homo sapiens, UniProt P00918). The data set is described as follows: Carboanhydrase inhibition, photometric, nitrophenyl acetate conversion (CA II). The class given is biochemical. An excerpt:
(§1) a) Carboanhydrase Inhibition
(§2) Photometric determination of the inhibition of human carboanhydrase I or II by sulphonamides or sulphamates on microtitre plates with the aid of the enzymatic conversion of nitrophenyl acetate with a colour change from colourless to yellow.

The target in data set [2] is human carboanhydrase I (Homo sapiens, UniProt P00915). Description: Carboanhydrase inhibition, photometric, nitrophenyl acetate conversion (CA I). The class given is biochemical.
From the text: as §1, §2

A short description of data set [3]: Blood-plasma concentration ratio in heparinized rat blood.
Procedure: b) Blood-plasma concentration ratio—test principle and experimental description:
The blood-plasma ratio is calculated from the measured concentration and the theoretical concentration.
The mark [4] stands for this setting: human carboanhydrase II, read-out: CA II IC50.
Setting [5] is: human carboanhydrase I, read-out: CA I IC50.
The mark [6] stands for this setting: freshly obtained heparinized whole blood.

Chain of human carboanhydrase I (P00915 whole entry): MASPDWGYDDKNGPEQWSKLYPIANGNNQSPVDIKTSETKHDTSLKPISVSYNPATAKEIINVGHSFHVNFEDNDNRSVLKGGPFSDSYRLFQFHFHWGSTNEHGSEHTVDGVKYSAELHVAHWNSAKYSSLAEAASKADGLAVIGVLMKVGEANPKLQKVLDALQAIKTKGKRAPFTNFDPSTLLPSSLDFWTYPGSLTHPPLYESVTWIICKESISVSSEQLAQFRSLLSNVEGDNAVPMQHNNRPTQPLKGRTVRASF

For the molecule `C[C@]12CC[C@@H]3c4ccc(O)cc4CC[C@H]3[C@@H]1CC[C@@H]2OC(=O)c1cc(S(N)(=O)=O)sc1Br` [Compound 4, 3-Hydroxyoestra-1,3,5(10)-trien-17β-yl 2′-bromo-5′-sulphamoylthiophene-3′-carboxylate], the values for the IC50 in data set [1] (setting [4]) and in data set [2] (setting [5]) were 47 nM and 3300 nM, respectively. Also, the blood plasma ratio in data set [3] (setting [6]) was 9.5.

On to `C[C@]12CC[C@H]3[C@@H](CCC4=CC(=O)CC[C@@]43C)[C@@H]1CC[C@@H]2OC(=O)c1ccc(S(N)(=O)=O)nc1` [Compound 5, 3-Oxoandrost-4-en-17β-yl 6′-sulphamoylnicotinate], for which the IC50 was 41 nM in data set [1] and 3200 nM in data set [2]. Besides, the blood plasma ratio in data set [3] turned out to be 3.6.

Consider `C[C@]12CC[C@H]3[C@@H](CCC4=CC(=O)CC[C@@]43C)[C@@H]1CC[C@@H]2OC(=O)c1cncc(S(N)(=O)=O)c1` [Compound 6, 3-Oxoandrost-4-en-17β-yl 5′-sulphamoylnicotinate], for which the IC50 in data set [1] came out at 250 nM; in data set [2], 2900 nM. Also, the blood plasma ratio in data set [3] stood at 5.7.

`CCc1sc(S(N)(=O)=O)cc1C(=O)O[C@H]1CC[C@H]2[C@@H]3CCc4cc(O)ccc4[C@H]3CC[C@]12C` [Compound 3, 3-Hydroxyoestra-1,3,5(10)-trien-17β-yl 2′-ethyl-5′-sulphamoylthiophene-3′-carboxylate]: the IC50 in data set [1] (setting [4]) was 42 nM; in data set [2] (setting [5]) it was 3400 nM. For the same molecule, in data set [3] (setting [6]), the blood plasma ratio was 1.8.

On to `C[C@]12CC[C@@H]3c4ccc(OS(N)(=O)=O)cc4CC[C@H]3[C@@H]1CC[C@@H]2O` [Oestradiol 3-sulphamate, reference compound], for which the Blood/plasma ratio entry was “About 50”. In addition, the half-inhibitory concentration (IC50) in data set [1] (setting [4]) was determined as 34 nM. In addition, in data set [2] (setting [5]), the IC50 worked out at 157 ± 10.6 nM.

For `C[C@]12CC[C@@H]3c4ccc(O)cc4CC[C@H]3[C@@H]1CC[C@@H]2OC(=O)c1ccc(S(N)(=O)=O)nc1` [Compound 1, 3-Hydroxyoestra-1,3,5(10)-trien-17β-yl 6′-sulphamoylnicotinate], the IC50 is 31 nM in data set [1] (setting [4]) and 2900 nM in data set [2] (setting [5]).

On to `C[C@]12CC[C@@H]3c4ccc(O)cc4CC[C@H]3[C@@H]1CC[C@@H]2OC(=O)c1cncc(S(N)(=O)=O)c1` [Compound 2, 3-Hydroxyoestra-1,3,5(10)-trien-17β-yl 5′-sulphamoylnicotinate], for which the values for the IC50 in data set [1] (setting [4]) and in data set [2] (setting [5]) were 160 nM and 2100 nM, respectively. For the same molecule, in data set [3] (setting [6]), the blood plasma ratio stood at 2.

In general, IC50 refers to the point on the concentration scale where inhibition reaches its midpoint.
